Where a name gives a salt, the structure may show the parent alone. Non-standard residues stand in square brackets, D forms with d. Residues, ends and D or L forms follow the SMILES beside them. *: point of attachment. Boc = CC(C)(C)OC(=O)*; CH2Cl = ClC*
Legend:
[1] = test system: persons having hyperlipidemia; assay: Treating hyperlipidemia: fasting lipid profile study; format: in vivo, human; settings: fasting (9-12 hours), versus control group
Procedure: Hyperlipidemia is an elevation of lipids in the bloodstream. These lipids include, for example, cholesterol and triglycerides. General hyperlipidemia is determined by the results of a lipid profile. The lipid profile includes LDL, HDL, triglycerides and total cholesterol measurements. A group of persons having hyperlipidemia with a total cholesterol level greater than 240 mg/dl, an HDL (high density lipid) of below 40 mg/ml, a triglyceride level of greater than 200 mg/dl and an LDL (low density lipid) level of over 160 mg/ml, after a 9 to 12 hours of fasting, are chosen for this study.
10 people are given a treatment of ritonavir at 600 mg taken twice a day. The other 10 people are given a placebo. The treatment continued for 2 months.
(§1) The study group is advised to follow their normal routine concerning their eating habits and exercise patterns, which is recorded 1 month prior to this study and throughout this study.
At the end of two months another fasting (9-12 hours) lipid profile is taken.
(§2) The same study in Example 8 is conducted with a larger group of people having hyperlipidemia. Each of the treated groups 1 to 7 is given as amprenavir, atazanavir, indinavir, lopinavir, fosamprenavir, nelfinavir or saquinavir in the same amounts as set forth in Example 3. The control group is given a placebo. At the end of two months another fasting (9-12 hours) lipid profile is taken.

[2] = test system: people having Type II diabetes; assay: Treating Type II diabetes: blood glucose study; format: in vivo, human; settings: versus control group (placebo)
Procedure: Type II diabetes is a disease in which the amount of insulin produced by the pancreas is inadequate to meet the body's needs and thus glucose, which is metabolized by insulin is not taken up normally from the blood into the body tissues. Therefore glucose in the blood rises. Type II diabetes is detected by a fasting glucose level of greater than 126 mg/dL measured on two occasions or one blood glucose level of greater than 200 mg/dL on one occasion or two random blood glucose levels of more than 200 mg/dL. Also a glucose tolerance test having a glucose level of more than 200 mg/dL 2 hours after drinking 75 grams of glucose also qualifies an individual as having Type II diabetes.
Two groups of 10 people are used in this study. The first given a treatment of ritonavir at 600 mg taken twice a day, while the other 10 people were given a placebo. The treatment continued for 2 months.
as §1
At the end of two months blood glucose levels and a glucose tolerance test are tested with all of the people in the study.
as §2, with “6” for “8”, “Type II diabetes.” for “hyperlipidemia.”

enteropeptidase [3] = target: T1, enteropeptidase (Homo sapiens, UniProt P98073); assay: Trypsinogen activation assay; format: biochemical; design: purchased R&D Systems 1585-SE
T1 sequence (P98073 whole entry): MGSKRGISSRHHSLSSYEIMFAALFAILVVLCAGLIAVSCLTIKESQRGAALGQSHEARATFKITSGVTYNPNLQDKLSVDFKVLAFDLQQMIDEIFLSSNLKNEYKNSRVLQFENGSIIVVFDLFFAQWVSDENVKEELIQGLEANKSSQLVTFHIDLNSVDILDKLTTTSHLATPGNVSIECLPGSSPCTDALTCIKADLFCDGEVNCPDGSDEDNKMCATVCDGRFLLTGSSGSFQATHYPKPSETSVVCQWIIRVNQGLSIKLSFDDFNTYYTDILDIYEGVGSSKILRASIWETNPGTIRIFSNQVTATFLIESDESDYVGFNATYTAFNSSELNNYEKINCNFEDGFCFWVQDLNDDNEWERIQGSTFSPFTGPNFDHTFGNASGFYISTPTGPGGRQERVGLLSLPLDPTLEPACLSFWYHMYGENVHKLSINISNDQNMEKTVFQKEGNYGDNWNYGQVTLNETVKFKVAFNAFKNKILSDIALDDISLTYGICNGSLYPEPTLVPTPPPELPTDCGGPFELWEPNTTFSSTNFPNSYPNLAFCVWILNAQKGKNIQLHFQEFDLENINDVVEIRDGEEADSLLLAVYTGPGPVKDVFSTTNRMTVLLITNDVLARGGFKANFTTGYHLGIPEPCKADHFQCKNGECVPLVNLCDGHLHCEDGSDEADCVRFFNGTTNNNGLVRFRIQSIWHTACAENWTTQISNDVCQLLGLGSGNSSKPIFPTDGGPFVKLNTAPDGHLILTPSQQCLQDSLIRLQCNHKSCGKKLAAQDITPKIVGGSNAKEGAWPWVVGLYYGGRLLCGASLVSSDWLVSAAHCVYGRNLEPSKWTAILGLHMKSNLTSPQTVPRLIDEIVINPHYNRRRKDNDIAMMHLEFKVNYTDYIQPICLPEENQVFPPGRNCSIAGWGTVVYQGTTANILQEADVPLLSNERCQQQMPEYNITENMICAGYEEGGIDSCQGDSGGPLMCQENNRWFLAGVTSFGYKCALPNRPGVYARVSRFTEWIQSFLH
Description: In vitro Testing: the Trypsinogen Activation Assay
Material: The following component, used in the present trypsinogen activation assay may be purchased as follows:
In the first step, the enteropeptidase cleaves the trypsinogen in its active form, trypsin. Trypsin, in the second step, cleaves the N-CBZ-Gly-Pro-Arg-p-nitroanilide (pNA) into N-CBZ-Gly-Pro-Arg and p-nitroanilide (pNA). The amount of pNA can be measured at 405 nm, and reflects the amount of trypsin cleaved and thus the inhibitory activity of the molecules tested on the enteropeptidase.
In the first step, the following mix was prepared (50 μl final) • recombinant human enteropeptidase: 1.5 nM final • sodium citrate: […] • candidate molecule or control: 1 μl • trypsinogen: 2.5 μM final
The mix was incubated at room temperature during 10 minutes and the reaction was stopped with 5 μl of HCl 0.4 M.
In the second step, the previous mix was then incubated with a 50 μl mix comprising 1 mM of N-CBZ-Gly-Pro-Arg-pNA, Tris Hcl pH 8.4 20 mM final and NaCl-150 mM final, at room temperature for 10 minutes. The absorbance of the resulting mix was read at 405 nm.
Results are expressed as the percentage of inhibition, which is the absorbance at 405 nm of the reaction in the presence of different concentrations of inhibitor as compared to the value obtained in the absence of inhibitor.

enteropeptidase [4] = target: T1, enteropeptidase; assay: Test for enteropeptidase only (data not shown); format: biochemical
pepsin = pepsin (Homo sapiens, UniProt P0DJD8); settings: read-out: Ki (affinity for pepsin); cited from earlier work
pepsin, sequence (P0DJD8 63-388): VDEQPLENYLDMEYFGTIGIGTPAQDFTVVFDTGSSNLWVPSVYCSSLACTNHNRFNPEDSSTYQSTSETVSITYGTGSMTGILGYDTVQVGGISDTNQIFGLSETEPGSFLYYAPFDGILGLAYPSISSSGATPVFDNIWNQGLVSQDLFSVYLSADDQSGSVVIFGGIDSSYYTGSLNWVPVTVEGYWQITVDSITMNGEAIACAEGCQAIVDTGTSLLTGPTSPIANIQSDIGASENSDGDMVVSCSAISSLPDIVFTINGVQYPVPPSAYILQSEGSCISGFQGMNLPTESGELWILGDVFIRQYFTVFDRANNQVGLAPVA

[5] = target: Recombinant human enteropeptidase (human, UniProt P98073 41-1019, limits assumed); assay: cell-based or functional assay
Recombinant human enteropeptidase, sequence (P98073 41-1019 E134Q/P732S limits assumed): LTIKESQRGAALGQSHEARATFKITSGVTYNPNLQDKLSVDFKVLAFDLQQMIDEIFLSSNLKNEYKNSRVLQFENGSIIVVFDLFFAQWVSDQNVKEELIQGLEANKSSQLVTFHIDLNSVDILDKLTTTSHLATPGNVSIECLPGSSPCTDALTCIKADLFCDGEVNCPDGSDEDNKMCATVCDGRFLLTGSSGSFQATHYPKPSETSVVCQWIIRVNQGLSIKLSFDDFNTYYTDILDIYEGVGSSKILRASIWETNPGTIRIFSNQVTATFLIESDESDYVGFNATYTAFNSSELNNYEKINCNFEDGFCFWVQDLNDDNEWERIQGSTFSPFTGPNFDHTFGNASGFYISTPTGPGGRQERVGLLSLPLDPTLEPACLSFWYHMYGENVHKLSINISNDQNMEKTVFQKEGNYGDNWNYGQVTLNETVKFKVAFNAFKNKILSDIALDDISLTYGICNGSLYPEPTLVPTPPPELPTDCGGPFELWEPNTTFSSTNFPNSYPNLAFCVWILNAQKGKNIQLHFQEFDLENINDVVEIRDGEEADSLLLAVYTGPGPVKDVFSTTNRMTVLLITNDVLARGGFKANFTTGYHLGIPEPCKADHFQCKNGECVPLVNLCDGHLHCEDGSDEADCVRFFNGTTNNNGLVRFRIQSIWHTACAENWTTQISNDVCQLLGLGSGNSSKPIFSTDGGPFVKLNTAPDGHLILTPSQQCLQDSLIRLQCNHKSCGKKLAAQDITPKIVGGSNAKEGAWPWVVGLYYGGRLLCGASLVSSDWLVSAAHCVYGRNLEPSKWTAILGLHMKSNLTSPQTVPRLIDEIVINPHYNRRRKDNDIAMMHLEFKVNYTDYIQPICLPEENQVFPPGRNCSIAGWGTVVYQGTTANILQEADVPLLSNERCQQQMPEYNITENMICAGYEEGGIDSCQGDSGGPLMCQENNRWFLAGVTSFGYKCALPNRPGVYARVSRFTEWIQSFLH

[6] = Example 9, groups 1 to 7, two months
[7] = Example 7, groups 1 to 7, two months

Row | Molecule | levels of HDL [1, 6] | levels of LDL [1, 6] | levels of cholesterol [1, 6] | levels of triglycerides [1, 6] | levels of blood glucose [2, 7] | further results
1 | Cc1c(O)cccc1C(=O)N[C@@H](CSc1ccccc1)[C@H](O)CN1C[C@H]2CCCC[C@H]2C[C@H]1C(=O)NC(C)(C)C [nelfinavir] | higher | significantly reduced | significantly reduced | significantly reduced | significantly reduced | 
2 | CC(C)CN(C[C@@H](OP(=O)(O)O)[C@H](Cc1ccccc1)NC(=O)O[C@H]1CCOC1)S(=O)(=O)c1ccc(N)cc1 [fosamprenavir] | higher | significantly reduced | significantly reduced | significantly reduced | significantly reduced | 
3 | BOC-Ala-Glu-Val-Asp-Aldehyde (Boc-AEVD-aldehyde; SMILES CC(C)[C@H](NC(=O)[C@H](CCC(=O)O)NC(=O)[C@H](C)NC(=O)OC(C)(C)C)C(=O)N[C@H](C=O)CC(=O)O) [negative control, Bachem N-1755] |  |  |  |  |  | inhibition (enteropeptidase [3]; tested at 10 μm): no inhibition
4 | N=C(N)NCCC[C@H](NC(=O)[C@@H]1CCCN1C(=O)[C@H](N)Cc1ccc(O)cc1)C(=O)CCl [H-D-Tyr-Pro-Arg-chloromethylketone trifluororoacetate salt] (H-[dY]-Pro-Arg-CH2Cl) |  |  |  |  |  | IC50 when tested for enteropeptidase only, compared with the ones reported in FIG. 6 (enteropeptidase [4]): higher
5 | CC(C)(C)NC(=O)[C@@H]1CN(Cc2cccnc2)CCN1C[C@@H](O)C[C@@H](Cc1ccccc1)C(=O)N[C@H]1c2ccccc2C[C@H]1O [indinavir] | higher | significantly reduced | significantly reduced | significantly reduced | significantly reduced | 
6 | COC(=O)N[C@H](C(=O)N[C@@H](Cc1ccccc1)[C@@H](O)CN(Cc1ccc(-c2ccccn2)cc1)NC(=O)[C@@H](NC(=O)OC)C(C)(C)C)C(C)(C)C [atazanavir] | higher | significantly reduced | significantly reduced | significantly reduced | significantly reduced | 
7 | Z-Asp-Glu-Val-Asp-chloromethylketone |  |  |  |  |  | inhibition (enteropeptidase [3]; tested at 50 μm): no inhibition; IC50 when tested for enteropeptidase only, compared with the ones reported in FIG. 6 (enteropeptidase [4]): higher
8 | CC(C)CN(C[C@@H](O)[C@H](Cc1ccccc1)NC(=O)O[C@H]1CCOC1)S(=O)(=O)c1ccc(N)cc1 [amprenavir] | higher | significantly reduced | significantly reduced | significantly reduced | significantly reduced | 
9 | CC(C)[C@H](NC(=O)[C@H](Cc1ccccc1)C[C@H](O)[C@H](Cc1ccccc1)NC(=O)OC(C)(C)C)C(=O)N[C@@H](Cc1ccccc1)C(=O)N1CCOCC1 [CGP 53437] |  |  |  |  |  | Ki (pepsin): 8 nM
10 | CC(C)(C)NC(=O)[C@@H]1C[C@@H]2CCCC[C@@H]2CN1C[C@@H](O)[C@H](Cc1ccccc1)NC(=O)[C@H](CC(N)=O)NC(=O)c1ccc2ccccc2n1 [saquinavir] | higher | significantly reduced | significantly reduced | significantly reduced | significantly reduced | 
11 | CC(=O)N[C@@H](CC(C)C)C(=O)N[C@H](C(=O)N[C@H](C=O)CCCCN)C(C)C [AC-Leu-Val-Lys-Aldhehyde] (Ac-Leu-Val-Lys-aldehyde) |  |  |  |  |  | IC50 (enteropeptidase [3]; trypsinogen activation assay, FIG. 6, enteropeptidase 1.5 nM, trypsinogen 2.5 μM): ~3 µM
12 | AC-Leu-Val-Lys-Aldhehyde (peptide) |  |  |  |  |  | IC50 in the trypsinogen activation assay (percentage of inhibition, absorbance of pNA at 405 nM) [5]: 3 µM
13 | CC(C)c1nc(CN(C)C(=O)N[C@H](C(=O)N[C@@H](Cc2ccccc2)C[C@H](O)[C@H](Cc2ccccc2)NC(=O)OCc2cncs2)C(C)C)cs1 [ritonavir] |  |  |  |  |  | levels of HDL ([1]; 600 mg twice a day, 2 months): higher; levels of LDL ([1]; 600 mg twice a day, 2 months): significantly reduced; levels of total cholesterol ([1]; 600 mg twice a day, 2 months): significantly reduced; levels of triglycerides ([1]; 600 mg twice a day, 2 months): significantly reduced; levels of blood glucose ([2]; 600 mg twice a day, 2 months): significantly reduced
14 | Cc1cccc(C)c1OCC(=O)N[C@@H](Cc1ccccc1)[C@@H](O)C[C@H](Cc1ccccc1)NC(=O)[C@H](C(C)C)N1CCCNC1=O [lopinavir] | higher | significantly reduced | significantly reduced | significantly reduced | significantly reduced | 
15 | H-[dY]-Pro-Arg-CH2Cl (also: trifluoroacetate salt) [H-D-Tyr-Pro-Arg-chloromethylketone trifluororoacetate salt] |  |  |  |  |  | IC50 in the trypsinogen activation assay (percentage of inhibition, absorbance of pNA at 405 nM) [5]: ~35 nM
16 | {1,5‑dansyl}-Glu-Gly-Arg-CH2Cl (also: dihydrochloride salt) [1,5-Dansyl-Glu-Gly-Arg-chloromethylketone dihydrochloride] |  |  |  |  |  | IC50 in the trypsinogen activation assay (percentage of inhibition, absorbance of pNA at 405 nM) [5]: ~24.7 nM

From patent US20070298025A1, “Pharmaceutical Compositions and Methods for Reducing Body Fat” (Obe Therapy Biotechnology S.A.S., priority 2004, published 2007)
